Legend:
Assay in all cases: KINOMEscan competition binding
Conditions in all cases: compound 10.0 µM
AAK1 (human) = AAK1 (human) (UniProt Q2M2I8)
ADCK4 (human) = ADCK4 (human) (UniProt Q96D53)
AXL (human) = AXL (human) (UniProt P30530)
BRSK2 (human) = BRSK2 (human) (UniProt Q8IWQ3)
CDC42BPA (human) = CDC42BPA (human) (UniProt Q5VT25)
CDK18 (human) = CDK18 (human) (UniProt Q07002)
CDK8 (human) = CDK8 (human) (UniProt P49336)
CIT (human) = CIT (human) (UniProt O14578)
CSNK1G1 (human) = CSNK1G1 (human) (UniProt Q9HCP0)
DAPK2 (human) = DAPK2 (human) (UniProt Q9UIK4)
DCLK2 (human) = DCLK2 (human) (UniProt Q8N568)
EPHA5 (human) = EPHA5 (human) (UniProt P54756)
EPHA6 (human) = EPHA6 (human) (UniProt Q9UF33)
[1] = tested on: FLT3 (human), P36888 [ITD]
[2] = tested on: FLT3 (human), P36888 [N841I]
IKBKE (human) = IKBKE (human) (UniProt Q14164)
IRAK3 (human) = IRAK3 (human) (UniProt Q9Y616)
ITK (human) = ITK (human) (UniProt Q08881)
[3] = biological target: JAK1 JH1 catalytic (human) (UniProt P23458)
MAP2K6 (human) = MAP2K6 (human) (UniProt P52564)
MAP3K4 (human) = MAP3K4 (human) (UniProt Q9Y6R4)
MAP3K7 (human) = MAP3K7 (human) (UniProt O43318)
MAPK3 (human) = MAPK3 (human) (UniProt P27361)
MARK2 (human) = MARK2 (human) (UniProt Q7KZI7)
MKNK1 (human) = MKNK1 (human) (UniProt Q9BUB5)
MLTK (human) = MLTK (human) (UniProt Q9NYL2)
NTRK3 (human) = NTRK3 (human) (UniProt Q16288)
PAK4 (human) = PAK4 (human) (UniProt O96013)
PDPK1 (human) = PDPK1 (human) (UniProt O15530)
PTK6 (human) = PTK6 (human) (UniProt Q13882)
RIPK2 (human) = RIPK2 (human) (UniProt O43353)
SGK110 (human) = SGK110 (human) (UniProt P0C264)
STK3 (human) = STK3 (human) (UniProt Q13188)
STK32B (human) = STK32B (human) (UniProt Q9NY57)
TEC (human) = TEC (human) (UniProt P42680)
TEK (human) = TEK (human) (UniProt Q02763)
ULK1 (human) = ULK1 (human) (UniProt O75385)
ULK2 (human) = ULK2 (human) (UniProt Q8IYT8)
WEE1 (human) = WEE1 (human) (UniProt P30291)
WEE2 (human) = WEE2 (human) (UniProt P0C1S8)

ADCK4 (human), sequence (Q96D53 whole entry, looked up): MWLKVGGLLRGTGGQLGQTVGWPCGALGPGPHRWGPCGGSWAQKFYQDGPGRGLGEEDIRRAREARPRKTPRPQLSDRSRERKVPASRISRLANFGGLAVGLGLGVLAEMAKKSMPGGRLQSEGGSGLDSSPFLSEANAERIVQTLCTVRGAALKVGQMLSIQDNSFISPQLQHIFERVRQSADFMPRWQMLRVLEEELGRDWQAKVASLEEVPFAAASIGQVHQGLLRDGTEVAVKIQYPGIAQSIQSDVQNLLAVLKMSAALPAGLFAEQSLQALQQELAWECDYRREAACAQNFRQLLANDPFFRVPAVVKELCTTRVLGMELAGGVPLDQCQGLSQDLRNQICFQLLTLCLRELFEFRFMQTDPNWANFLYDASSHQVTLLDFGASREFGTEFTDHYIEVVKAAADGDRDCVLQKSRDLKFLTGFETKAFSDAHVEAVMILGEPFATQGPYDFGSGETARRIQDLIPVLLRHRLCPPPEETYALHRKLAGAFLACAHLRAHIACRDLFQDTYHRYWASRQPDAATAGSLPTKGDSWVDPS
NTRK3 (human), sequence (Q16288 whole entry, looked up): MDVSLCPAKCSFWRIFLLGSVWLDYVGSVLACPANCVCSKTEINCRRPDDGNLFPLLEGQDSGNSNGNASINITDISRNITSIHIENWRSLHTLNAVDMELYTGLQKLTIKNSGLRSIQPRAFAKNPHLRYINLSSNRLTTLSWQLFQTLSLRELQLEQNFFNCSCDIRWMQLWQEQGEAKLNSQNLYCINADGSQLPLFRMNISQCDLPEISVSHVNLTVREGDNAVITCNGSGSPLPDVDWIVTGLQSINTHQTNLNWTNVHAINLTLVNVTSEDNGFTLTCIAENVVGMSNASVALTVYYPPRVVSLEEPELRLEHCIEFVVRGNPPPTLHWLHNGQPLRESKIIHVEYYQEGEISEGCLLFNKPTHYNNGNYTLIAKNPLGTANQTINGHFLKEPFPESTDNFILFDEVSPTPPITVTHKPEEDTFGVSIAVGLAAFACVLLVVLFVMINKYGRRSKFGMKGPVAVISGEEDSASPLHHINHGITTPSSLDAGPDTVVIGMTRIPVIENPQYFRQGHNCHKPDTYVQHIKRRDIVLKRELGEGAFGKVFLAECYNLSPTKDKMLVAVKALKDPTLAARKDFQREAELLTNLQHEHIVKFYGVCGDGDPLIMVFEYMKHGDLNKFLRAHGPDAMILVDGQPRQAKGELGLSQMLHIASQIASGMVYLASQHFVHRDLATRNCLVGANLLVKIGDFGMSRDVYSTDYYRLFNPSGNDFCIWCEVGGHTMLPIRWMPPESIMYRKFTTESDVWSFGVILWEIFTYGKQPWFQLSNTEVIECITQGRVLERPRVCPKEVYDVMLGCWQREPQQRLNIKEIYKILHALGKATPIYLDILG
BRSK2 (human), sequence (Q8IWQ3 whole entry, looked up): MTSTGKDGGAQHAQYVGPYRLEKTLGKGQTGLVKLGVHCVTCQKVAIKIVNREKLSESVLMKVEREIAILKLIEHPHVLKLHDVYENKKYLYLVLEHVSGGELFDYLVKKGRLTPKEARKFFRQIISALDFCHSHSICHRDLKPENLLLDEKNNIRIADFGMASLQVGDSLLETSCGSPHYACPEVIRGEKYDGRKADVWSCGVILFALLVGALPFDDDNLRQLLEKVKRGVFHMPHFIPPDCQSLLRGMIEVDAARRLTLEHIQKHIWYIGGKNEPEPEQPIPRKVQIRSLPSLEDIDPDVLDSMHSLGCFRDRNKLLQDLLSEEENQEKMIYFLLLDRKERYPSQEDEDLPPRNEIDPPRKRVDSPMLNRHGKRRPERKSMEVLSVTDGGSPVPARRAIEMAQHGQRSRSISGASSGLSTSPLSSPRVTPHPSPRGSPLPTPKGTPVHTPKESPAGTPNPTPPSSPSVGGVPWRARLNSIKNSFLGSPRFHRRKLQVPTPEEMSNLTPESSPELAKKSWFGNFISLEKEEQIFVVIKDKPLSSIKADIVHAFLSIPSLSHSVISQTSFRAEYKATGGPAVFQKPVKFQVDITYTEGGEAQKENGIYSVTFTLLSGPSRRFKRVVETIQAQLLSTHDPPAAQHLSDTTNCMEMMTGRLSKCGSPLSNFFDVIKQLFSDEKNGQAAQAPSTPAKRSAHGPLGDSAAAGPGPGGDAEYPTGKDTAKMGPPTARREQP
CDC42BPA (human), sequence (Q5VT25 whole entry, looked up): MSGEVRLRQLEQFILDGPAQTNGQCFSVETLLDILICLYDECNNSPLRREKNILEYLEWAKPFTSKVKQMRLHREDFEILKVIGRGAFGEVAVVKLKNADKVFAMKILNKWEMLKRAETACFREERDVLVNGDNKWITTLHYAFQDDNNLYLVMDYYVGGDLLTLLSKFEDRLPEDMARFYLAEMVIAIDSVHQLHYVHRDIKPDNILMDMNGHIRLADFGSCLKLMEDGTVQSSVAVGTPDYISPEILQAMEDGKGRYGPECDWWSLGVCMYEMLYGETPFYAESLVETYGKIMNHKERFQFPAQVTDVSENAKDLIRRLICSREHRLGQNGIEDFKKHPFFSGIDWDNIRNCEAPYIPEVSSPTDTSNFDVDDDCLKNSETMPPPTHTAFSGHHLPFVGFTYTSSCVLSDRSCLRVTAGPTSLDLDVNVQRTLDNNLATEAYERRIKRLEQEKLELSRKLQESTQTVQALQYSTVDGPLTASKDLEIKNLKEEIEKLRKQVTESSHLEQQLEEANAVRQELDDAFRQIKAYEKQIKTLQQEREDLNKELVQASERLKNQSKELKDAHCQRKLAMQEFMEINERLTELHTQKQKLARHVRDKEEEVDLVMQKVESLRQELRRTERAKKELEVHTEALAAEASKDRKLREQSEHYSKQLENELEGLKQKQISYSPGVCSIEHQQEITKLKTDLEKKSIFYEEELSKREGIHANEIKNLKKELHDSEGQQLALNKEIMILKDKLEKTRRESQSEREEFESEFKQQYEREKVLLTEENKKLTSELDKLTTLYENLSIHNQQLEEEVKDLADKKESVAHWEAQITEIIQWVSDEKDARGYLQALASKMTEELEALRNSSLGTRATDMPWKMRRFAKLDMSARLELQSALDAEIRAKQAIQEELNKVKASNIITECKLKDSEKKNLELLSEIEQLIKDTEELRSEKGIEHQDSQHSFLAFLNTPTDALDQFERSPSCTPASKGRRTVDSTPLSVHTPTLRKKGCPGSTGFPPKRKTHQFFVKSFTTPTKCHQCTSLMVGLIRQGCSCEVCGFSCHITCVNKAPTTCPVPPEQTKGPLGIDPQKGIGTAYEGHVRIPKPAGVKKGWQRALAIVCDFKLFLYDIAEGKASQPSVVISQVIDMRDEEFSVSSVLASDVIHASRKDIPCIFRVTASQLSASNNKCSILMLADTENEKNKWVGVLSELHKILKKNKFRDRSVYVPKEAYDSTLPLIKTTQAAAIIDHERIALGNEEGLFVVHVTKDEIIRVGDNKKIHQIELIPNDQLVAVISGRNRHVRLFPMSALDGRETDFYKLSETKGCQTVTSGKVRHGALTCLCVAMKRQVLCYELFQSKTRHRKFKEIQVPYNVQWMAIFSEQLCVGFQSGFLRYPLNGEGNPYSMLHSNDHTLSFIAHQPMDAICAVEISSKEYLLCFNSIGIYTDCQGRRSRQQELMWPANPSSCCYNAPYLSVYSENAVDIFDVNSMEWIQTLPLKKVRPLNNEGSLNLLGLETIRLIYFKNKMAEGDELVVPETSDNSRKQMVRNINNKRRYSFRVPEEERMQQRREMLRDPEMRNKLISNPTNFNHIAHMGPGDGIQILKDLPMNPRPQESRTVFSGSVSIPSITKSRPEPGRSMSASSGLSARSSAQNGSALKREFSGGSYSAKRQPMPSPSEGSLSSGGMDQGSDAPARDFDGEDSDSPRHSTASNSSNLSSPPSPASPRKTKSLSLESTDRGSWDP
MLTK (human), sequence (Q9NYL2 whole entry, looked up): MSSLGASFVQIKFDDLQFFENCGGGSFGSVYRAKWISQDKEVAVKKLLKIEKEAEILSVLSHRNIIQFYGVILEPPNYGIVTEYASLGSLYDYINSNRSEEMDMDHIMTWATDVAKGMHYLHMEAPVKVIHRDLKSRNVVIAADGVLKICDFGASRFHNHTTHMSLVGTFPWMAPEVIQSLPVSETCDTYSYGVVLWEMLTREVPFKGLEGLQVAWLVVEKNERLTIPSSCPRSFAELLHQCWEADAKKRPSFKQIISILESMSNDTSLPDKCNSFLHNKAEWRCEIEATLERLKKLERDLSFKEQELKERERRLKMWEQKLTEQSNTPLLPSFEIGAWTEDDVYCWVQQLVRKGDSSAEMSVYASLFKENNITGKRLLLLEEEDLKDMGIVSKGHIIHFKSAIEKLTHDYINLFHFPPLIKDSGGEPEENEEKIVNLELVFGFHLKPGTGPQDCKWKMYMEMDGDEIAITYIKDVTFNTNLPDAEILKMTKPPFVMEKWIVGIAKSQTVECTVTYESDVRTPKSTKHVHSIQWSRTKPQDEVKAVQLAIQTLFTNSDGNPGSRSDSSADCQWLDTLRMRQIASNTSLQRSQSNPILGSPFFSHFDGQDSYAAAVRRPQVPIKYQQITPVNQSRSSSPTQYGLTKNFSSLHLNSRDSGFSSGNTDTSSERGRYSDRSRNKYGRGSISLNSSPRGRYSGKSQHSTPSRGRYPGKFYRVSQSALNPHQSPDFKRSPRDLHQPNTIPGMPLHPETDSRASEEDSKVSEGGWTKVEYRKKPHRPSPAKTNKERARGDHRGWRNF
CSNK1G1 (human), sequence (Q9HCP0 whole entry, looked up): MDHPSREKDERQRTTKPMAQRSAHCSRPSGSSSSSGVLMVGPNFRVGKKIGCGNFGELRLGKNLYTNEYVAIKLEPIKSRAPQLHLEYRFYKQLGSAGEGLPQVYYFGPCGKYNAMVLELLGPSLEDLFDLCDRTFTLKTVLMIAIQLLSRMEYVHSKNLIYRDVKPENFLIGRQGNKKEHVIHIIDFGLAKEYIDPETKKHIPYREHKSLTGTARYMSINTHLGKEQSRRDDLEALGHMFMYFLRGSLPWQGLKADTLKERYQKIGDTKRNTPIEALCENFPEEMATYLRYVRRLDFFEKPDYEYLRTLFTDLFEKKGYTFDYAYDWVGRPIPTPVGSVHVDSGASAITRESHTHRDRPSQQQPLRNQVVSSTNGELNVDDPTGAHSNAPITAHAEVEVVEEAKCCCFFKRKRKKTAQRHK

Structure (SMILES)	kinase still bound, per cent of control (AAK1 (human))	kinase still bound, per cent of control (ADCK4 (human))	kinase still bound, per cent of control (AXL (human))	kinase still bound, per cent of control (BRSK2 (human))	kinase still bound, per cent of control (CDC42BPA (human))	kinase still bound, per cent of control (CDK18 (human))	kinase still bound, per cent of control (CDK8 (human))	kinase still bound, per cent of control (CIT (human))	kinase still bound, per cent of control (CSNK1G1 (human))	kinase still bound, per cent of control (DAPK2 (human))	kinase still bound, per cent of control (DCLK2 (human))	kinase still bound, per cent of control (EPHA5 (human))	kinase still bound, per cent of control (EPHA6 (human))	kinase still bound, per cent of control [1]	kinase still bound, per cent of control [2]	kinase still bound, per cent of control (IKBKE (human))	kinase still bound, per cent of control (IRAK3 (human))	kinase still bound, per cent of control (ITK (human))	kinase still bound, per cent of control [3]	kinase still bound, per cent of control (MAP2K6 (human))	other results
CCN1CCN(Cc2ccc(Nc3ncc4c(n3)N(C)c3ccccc3C(=O)N4C)cc2C(F)(F)F)CC1	36%	57%	11%	42%	70%	97%	94%	99%	7.6%	70%	1.3%	100%	90%	19%	21%	73%	69%	100%	93%	75%	kinase still bound, per cent of control (MAP3K4 (human)): 81%; kinase still bound, per cent of control (MAP3K7 (human)): 17%; kinase still bound, per cent of control (MAPK3 (human)): 99%; kinase still bound, per cent of control (MARK2 (human)): 40%; kinase still bound, per cent of control (MKNK1 (human)): 100%; kinase still bound, per cent of control (MLTK (human)): 65%; kinase still bound, per cent of control (NTRK3 (human)): 100%; kinase still bound, per cent of control (PAK4 (human)): 80%; kinase still bound, per cent of control (PDPK1 (human)): 100%; kinase still bound, per cent of control (PTK6 (human)): 29%; kinase still bound, per cent of control (RIPK2 (human)): 6.4%; kinase still bound, per cent of control (SGK110 (human)): 0.6%; kinase still bound, per cent of control (STK3 (human)): 8.1%; kinase still bound, per cent of control (STK32B (human)): 100%; kinase still bound, per cent of control (TEC (human)): 99%; kinase still bound, per cent of control (TEK (human)): 85%; kinase still bound, per cent of control (ULK1 (human)): 0%; kinase still bound, per cent of control (ULK2 (human)): 0%; kinase still bound, per cent of control (WEE1 (human)): 91%; kinase still bound, per cent of control (WEE2 (human)): 64%
Nc1ccc(-c2ccc3ncc4ccc(=O)n(-c5cccc(C(F)(F)F)c5)c4c3c2)cn1	71%	77%	74%	100%	99%	100%	100%	100%	100%	100%	98%	100%	100%	45%	11%	89%	42%	100%	92%	93%	kinase still bound, per cent of control (MAP3K4 (human)): 100%; kinase still bound, per cent of control (MAP3K7 (human)): 48%; kinase still bound, per cent of control (MAPK3 (human)): 100%; kinase still bound, per cent of control (MARK2 (human)): 100%; kinase still bound, per cent of control (MKNK1 (human)): 43%; kinase still bound, per cent of control (MLTK (human)): 65%; kinase still bound, per cent of control (NTRK3 (human)): 100%; kinase still bound, per cent of control (PAK4 (human)): 100%; kinase still bound, per cent of control (PDPK1 (human)): 100%; kinase still bound, per cent of control (PTK6 (human)): 100%; kinase still bound, per cent of control (RIPK2 (human)): 54%; kinase still bound, per cent of control (SGK110 (human)): 100%; kinase still bound, per cent of control (STK3 (human)): 63%; kinase still bound, per cent of control (STK32B (human)): 100%; kinase still bound, per cent of control (TEC (human)): 100%; kinase still bound, per cent of control (TEK (human)): 100%; kinase still bound, per cent of control (ULK1 (human)): 96%; kinase still bound, per cent of control (ULK2 (human)): 95%; kinase still bound, per cent of control (WEE1 (human)): 100%; kinase still bound, per cent of control (WEE2 (human)): 100%
O=C1Nc2ccc(I)cc2/C1=C/c1cc(Br)c(O)c(Br)c1	5.2%	65%	100%	100%	100%	100%	62%	5.6%	69%	1.9%	94%	91%	100%	33%	12%	86%	62%	96%	100%	71%	kinase still bound, per cent of control (MAP3K4 (human)): 95%; kinase still bound, per cent of control (MAP3K7 (human)): 67%; kinase still bound, per cent of control (MAPK3 (human)): 100%; kinase still bound, per cent of control (MARK2 (human)): 44%; kinase still bound, per cent of control (MKNK1 (human)): 83%; kinase still bound, per cent of control (MLTK (human)): 84%; kinase still bound, per cent of control (NTRK3 (human)): 35%; kinase still bound, per cent of control (PAK4 (human)): 82%; kinase still bound, per cent of control (PDPK1 (human)): 100%; kinase still bound, per cent of control (PTK6 (human)): 85%; kinase still bound, per cent of control (RIPK2 (human)): 38%; kinase still bound, per cent of control (SGK110 (human)): 100%; kinase still bound, per cent of control (STK3 (human)): 3.3%; kinase still bound, per cent of control (STK32B (human)): 100%; kinase still bound, per cent of control (TEC (human)): 100%; kinase still bound, per cent of control (TEK (human)): 100%; kinase still bound, per cent of control (ULK1 (human)): 100%; kinase still bound, per cent of control (ULK2 (human)): 90%; kinase still bound, per cent of control (WEE1 (human)): 100%; kinase still bound, per cent of control (WEE2 (human)): 94%
